Assay results reported in publication PMC11820915, “Identification of HIV-1 Reverse Transcriptase-Associated Ribonuclease H Inhibitors Based on 2-Hydroxy-1,4-naphthoquinone Mannich Bases” (Molecules, 2025).
Values joined by “and” are separate entries in the source; they are usually repeats but may differ in a detail not shown here. Equal values may be shown once. Read-outs that look alike come from different tables or passages of the source.

How the values were obtained:
[1] = target: T1, HIV-1 RT-associated RNase H (Human immunodeficiency virus type 1 group M subtype B, UniProt P03366); assay: HIV-1 RT-associated RNase H inhibition assay; format: biochemical; design: 50 nM of HIV-1 RT; conditions: for IC50: 50 nM HIV-1 RT, 15 min at 37 °C, triplicate
Description: HIV-1 RT-associated RNase H inhibition assays were carried out in a 384 multiwell format, in 30 µL reaction volume containing 50 mM Tris–HCl buffer pH 7.8, 6 mM MgCl2, 1 mM dithiothreitol (DTT), 80 mM KCl, 0.25 µM hybrid RNA/DNA 5’-[…]-Fluorescin-3’ 5’-Dabcyl-[…]-3’ increasing concentrations of inhibitor, whose dilutions were made in DMSO, and 50 nM of HIV-1 RT. The reaction mixture was incubated for 15 min at 37 °C and products were measured with a multilabel counter plate reader VictorNivo5 (PerkinElmer, Waltham, MA, USA) equipped with filters for 490/528 nm. IC50, the concentration able to inhibit 50% of enzymatic activity, was calculated by non-linear regression curve fit using Prisme v9.0. All experiments were conducted in triplicate.

in vitro = conditions: African green monkey
SARS-CoV-2 = assay: microbe, parasite or virus in culture; format: cell-based; conditions: for EC50: read-out: EC50 for viral replication inhibition; for Inhibitory activity against SARS-CoV-2 replication (in words): with CP-100356
HIV-1 [2] = format: cell-based; conditions: for Antiviral effect, reduction of GFP fluorescence expression (in words): MT4 cells, FACS
HIV-1 [3] = assay: HIV-1 infectivity in HelaP4 cells (CPRG assay); format: cell-based; conditions: for Reduction of HIV-1 infectivity: at highest non-toxic concentration, 48 h
HelaP4 cells = assay: Toxicity to HelaP4 cells (MTT assay); format: cell-based
Description: HelaP4 cells (10^4 cells/well) were infected with viruses (7.5 ng p24) in the presence of increasing concentration of compounds. Cells were incubated for 48 h before analysis. β-Galactosidase is under the control of the HIV-1 LTR. Infectivity is correlated with the number of infected cells. Cells were lysed for 10 min at 37 °C using 80 µL of lysis buffer (Na2HPO4 60 mM, NaH2PO4 60 mM, KCl 10 mM, MgSO4 10 mM, EDTA 25 mM, and NP-40 0.125%). After lysis, 170 µL of CPRG buffer (phosphate buffer 100 mM, pH 7.4, MgCl2 100 mM, and CPRG 20 mM) was added to each well. The plates were incubated at 37 °C until the color changed to dark red. Finally, a plate reader was used to read the absorbance at 572 nm. The MTT assay varies based on NAD(P)H-dependent cellular oxidoreductase enzymes of viable cells reducing the yellow tetrazolium salt MTT (3-(4,5-dimethylthiazol2-yl)-2,5-diphenyltetrazolium bromide). Spectrophotometric measurement can be used to quantify the insoluble purple formazan product that is produced by this reaction. An amount of 10 µL of MTT reagent (7.5 mg/mL in PBS, pH 7.4) was added to each well of the microtiter plate before incubating at 37 °C for 2 h. After 2 h of incubation, 100 µL of MTT lysis buffer (SDS 10%, HCl 0.01 N, pH 4.7) was added and the resulting optical density (OD) readings were measured at 572 nm.

HIV-1 viral DNA = assay: qPCR of total HIV-1 viral DNA in infected MT4 cells; format: cell-based; conditions: 30 µM
Description: At the same time point, cells were harvested and washed with PBS before centrifugation to form pellets. DNA extraction was carried out using the QIAamp DNA Blood Mini Kit (Qiagen, Hilden, Germany). The procedure involved lysing the cells with AL buffer and Proteinase K to release the DNA. The lysate was then mixed with ethanol to facilitate DNA binding to a silica-based membrane in a spin column. The bound DNA was washed with buffers AW1 and AW2 to remove contaminants, and, finally, the DNA was eluted in 100 μL of water. DNA quantification was performed using quantitative polymerase chain reaction (qPCR) with the Roche LightCycler instrument. Accordingly, DNA quantification was conducted using real-time PCR (qPCR) on the same apparatus. This analysis utilized nucleic acid amounts corresponding to approximately 200,000 cells. The sequences of primers and probes employed for qPCR, aimed at absolute quantification of total HIV-1 viral DNA, have been previously described. The copy numbers of total HIV-1 DNA were ascertained from calibration curves derived from amplifying known quantities of cloned DNA with matching sequences.

MT4 cells = assay: Toxicity ZombieAqua test in MT4 cells; format: cell-based; conditions: 30 µM, Zombie Aqua
Description: MT4 cells (10^5 cells/well) were infected with viruses (100 ng/well) in the presence of increasing concentration of lawsone compounds and the positive control efavirenz (Sigma-Aldrich, St. Louis, MO, USA). After 48 h, cells from each well were washed with PBS and centrifuged (1500 rpm, 5 min). Then, cells were incubated with Zombie Aqua™ (Biolegend, San Diego, CA, USA) dye solution for 15 min in the dark at room temperature to stain dead cells. After that, the cell pellets were washed one more time with PBS before analysis by flow cytometer. Acquisition was performed on a FACS Celesta (BD Biosciences) and analysis was performed using FlowJo v10 software. Cells were first gated on the FSC-H and FSC-A parameters to exclude doublet cells. Then, living cells were selected according to the Zombie Acqua staining (dead cells are stained whereas living cells are not). Finally, the percentage of HIV-1infected cells was measured by analyzing the percentage of GFP+ cells among living cells.

VEROE6-EGFP cells = conditions: read-out: CC50 cytotoxic concentration, in the presence of 2 µM CP-100356
[4] = target: T1, HIV-1 RT-associated RNase H; conditions: negative control; ref Min et al. [33]; cited from earlier work
[5] = read-out: IC50, HIV-1 RT-associated RNase H activity
[6] = Severe acute respiratory syndrome coronavirus 2, VEROE6-EGFP cells, in the presence of 2 µM CP-100356
[7] = IC50, HIV-1 RT-associated RNase H activity

## CCCCCCCNC(C1=C(O)C(=O)c2ccccc2C1=O)c1ccccn1 (stereo not drawn) [Compound 1a]
[1]; [5]
  IC50: 31.2 ± 6.5 µM

## CCCCCCCCCCCCNC(C1=C(O)C(=O)c2ccccc2C1=O)c1ccccn1 (stereo not drawn) [Compound 1b]
[1]; [5]
  IC50: 4 to 4.4 µM and 4.4 µM

## CCCCCCCCCCCCCCNC(C1=C(O)C(=O)c2ccccc2C1=O)c1ccccn1 (stereo not drawn) [Compound 1c]
[1]; [5]
  IC50: 4 to 4.4 µM and 4 µM

## CCCCCCCCCCCCCCCCNC(C1=C(O)C(=O)c2ccccc2C1=O)c1ccccn1 (stereo not drawn) [Compound 1d]
[1]; [5]
  IC50: 10.7 ± 4.1 µM

## O=C1C(O)=C(C(NCc2ccccc2)c2ccccn2)C(=O)c2ccccc21 (stereo not drawn) [Compound 1e]
In vitro
  CC50: 35.3 ± 1.3 µM
SARS-CoV-2
  SI, selectivity index CC50/EC50: 3.15
SARS-CoV-2; [6]
  EC50: 11.2 ± 2.1 µM
SARS-CoV-2; VEROE6-EGFP cells
  Inhibitory activity against SARS-CoV-2 replication (in words): moderate inhibitory activity
[1]; [7]
  IC50: 2.8 to 3.1 µM and 3.1 µM

## O=C1C(O)=C(C(NCc2ccc(F)c(F)c2)c2ccccn2)C(=O)c2ccccc21 (stereo not drawn) [Compound 1f]
[1]; [5]
  IC50: 17.4 ± 4.1 µM

## CCCCCCCCCCCCNC(C1=C(O)C(=O)c2ccccc2C1=O)c1cccc(Br)n1 (stereo not drawn) [Compound 1g, 3-[(Dodecylamino)(6-bromo-2-pyridyl)methyl]-2-hydroxy-1,4-naphthoquinone]
[1]; [5]
  IC50: > 100 µM

## CCCCCCCCCCCCCCNC(C1=C(O)C(=O)c2ccccc2C1=O)c1cccc(Br)n1 (stereo not drawn) [Compound 1h, 3-[(Tetradecylamino)(6-bromo-2-pyridyl)methyl]-2-hydroxy-1,4-naphthoquinone]
[1]; [5]
  IC50: > 100 µM

## CCCCCCCCCCCCCCCCNC(C1=C(O)C(=O)c2ccccc2C1=O)c1cccc(Br)n1 (stereo not drawn) [Compound 1i, 3-[(Hexadecylamino)(6-bromo-2-pyridyl)methyl]-2-hydroxy-1,4-naphthoquinone]
[1]; [5]
  IC50: 78.6 ± 11.5 µM

## O=C1C(O)=C(C(NCc2ccccc2)c2cccc(Br)n2)C(=O)c2ccccc21 (stereo not drawn) [Compound 1j, 3-[(Benzylamino)(6-bromo-2-pyridyl)methyl]-2-hydroxy-1,4-naphthoquinone]
[1]; [5]
  IC50: > 100 µM

## CCCCCCCCCCCCCCNC(C1=C(O)C(=O)c2ccccc2C1=O)c1ccccc1 (stereo not drawn) [Compound 2a]
[1]; [5]
  IC50: 21.5 ± 0.9 µM

## CCCCCCCCCCCCCCNC(C1=C(O)C(=O)c2ccccc2C1=O)c1ccccc1F (stereo not drawn) [Compound 2b, 3-[(Tetradecylamino)(2-fluorophenyl)methyl]-2-hydroxy-1,4-naphthoquinone]
HIV-1 [2]
  Antiviral effect, reduction of GFP fluorescence expression (in words): no or weak antiviral effects
HIV-1 [3]
  Reduction of HIV-1 infectivity: 75%
[1]; [5]
  IC50: 15 ± 5.1 µM

## CCCCCCCCCCCCCCNC(C1=C(O)C(=O)c2ccccc2C1=O)c1ccccc1Cl (stereo not drawn) [Compound 2c, 3-[(Tetradecylamino)(2-chlorophenyl)methyl]-2-hydroxy-1,4-naphthoquinone]
HIV-1 [2]
  Antiviral effect, reduction of GFP fluorescence expression (in words): no or weak antiviral effects
HIV-1 [3]
  Reduction of HIV-1 infectivity: 46%
[1]; [5]
  IC50: 7.3 ± 4.7 µM

## CCCCCCCCCCCCNC(C1=C(O)C(=O)c2ccccc2C1=O)c1ccccc1O (stereo not drawn) [Compound 2d]
HelaP4 cells
  Cytotoxicity (in words): displayed cytotoxicity
[1]; [7]
  IC50: 17.6 ± 3.8 µM

## CCCCCCCCCCCCCCNC(C1=C(O)C(=O)c2ccccc2C1=O)c1ccccc1O (stereo not drawn) [Compound 2e, 3-[(Tetradecylamino)(2-hydroxyphenyl)methyl]-2-hydroxy-1,4-naphthoquinone]
HIV-1 [3]
  Antiviral activity against HIV-1 (in words): no antiviral activity
[1]; [5]
  IC50: 8.5 ± 1.6 µM

## CCCCCCCCCCCCCCCCNC(C1=C(O)C(=O)c2ccccc2C1=O)c1ccccc1O (stereo not drawn) [Compound 2f]
HelaP4 cells
  Cytotoxicity (in words): displayed cytotoxicity
[1]; [7]
  IC50: 7 ± 0.9 µM

## O=C1C(O)=C(C(NCc2ccccc2)c2ccccc2O)C(=O)c2ccccc21 (stereo not drawn) [Compound 2g]
[1]
  HIV-1 RNase H inhibitory activity (in words): inactive
[1]; [5]
  IC50: > 100 µM

## O=C1C(O)=C(C(Nc2ccccn2)c2ccccc2O)C(=O)c2ccccc21 (stereo not drawn) [Compound 2h]
[1]
  HIV-1 RNase H inhibitory activity (in words): moderate activity
[1]; [5]
  IC50: 20.8 ± 0.2 µM

## CCCCCCCCCCCCNC(C1=C(O)C(=O)c2ccccc2C1=O)c1cc(Cl)cc(Cl)c1O (stereo not drawn) [Compound 2i]
HIV-1 [2]
  Antiviral effect, reduction of GFP fluorescence expression (in words): no or weak antiviral effects
HIV-1 [3]
  Reduction of HIV-1 infectivity: 65%
[1]; [5]
  IC50: 4.7 ± 1.6 µM

## CCCCCCCCCCCCCCNC(C1=C(O)C(=O)c2ccccc2C1=O)c1cc(Cl)cc(Cl)c1O (stereo not drawn) [Compound 2j, 3-[(Tetradecylamino)(3,5-dichloro-2-hydroxyphenyl)methyl]-2-hydroxy-1,4-naphthoquinone]
[1]; [5]
  IC50: 43.7 ± 3.5 µM

## CCCCCCCCCCCCCCCCNC(C1=C(O)C(=O)c2ccccc2C1=O)c1cc(Cl)cc(Cl)c1O (stereo not drawn) [Compound 2k]
HIV-1 [2]
  Reduction of percentage of GFP-positive cells: half
In vitro
  CC50: 41.2 ± 1.3 µM
HIV-1 viral DNA
  Reduction of viral DNA levels: over 50%
SARS-CoV-2; [6]
  EC50: > 41.2 µM
SARS-CoV-2; VEROE6-EGFP cells
  Inhibitory activity against SARS-CoV-2 replication (in words): inactive
MT4 cells
  Toxicity (in words): without exhibiting any toxicity
[1]; [7]
  IC50: 2.8 to 3.1 µM and 2.8 µM

## O=C1C(O)=C(C(NCc2ccccc2)c2cc(Cl)cc(Cl)c2O)C(=O)c2ccccc21 (stereo not drawn) [Compound 2l, 3-[(Benzylamino)(3,5-dichloro-2-hydroxyphenyl)methyl]-2-hydroxy-1,4-naphthoquinone]
HIV-1 [2]
  Antiviral effect, reduction of GFP fluorescence expression (in words): no or weak antiviral effects
HIV-1 [3]
  Reduction of HIV-1 infectivity: 48%
[1]
  HIV-1 RNase H inhibitory activity (in words): moderate activities
[1]; [5]
  IC50: 12.7 ± 3.4 µM

## CCCCCCCCCCCCNC(C1=C(O)C(=O)c2ccccc2C1=O)c1cc(Br)cc(Br)c1O (stereo not drawn) [Compound 2m]
HIV-1 [3]
  Antiviral activity against HIV-1 (in words): no antiviral activity
[1]; [5]
  IC50: 7.1 ± 1.1 µM

## CCCCCCCCCCCCCCNC(C1=C(O)C(=O)c2ccccc2C1=O)c1cc(Br)cc(Br)c1O (stereo not drawn) [Compound 2n, 3-[(Tetradecylamino)(3,5-dibromo-2-hydroxyphenyl)methyl]-2-hydroxy-1,4-naphthoquinone]
[1]; [5]
  IC50: 105 ± 10.6 µM

## CCCCCCCCCCCCCCCCNC(C1=C(O)C(=O)c2ccccc2C1=O)c1cc(Br)cc(Br)c1O (stereo not drawn) [Compound 2o]
[1]; [5]
  IC50: 32.5 ± 10.5 µM

## O=C1C(O)=C(C(NCc2ccccc2)c2cc(Br)cc(Br)c2O)C(=O)c2ccccc21 (stereo not drawn) [Compound 2p, 3-[(Benzylamino)(3,5-dibromo-2-hydroxyphenyl)methyl]-2-hydroxy-1,4-naphthoquinone]
HIV-1 [2]
  Antiviral effect, reduction of GFP fluorescence expression (in words): no or weak antiviral effects
HIV-1 [3]
  Reduction of HIV-1 infectivity: 70%
[1]
  HIV-1 RNase H inhibitory activity (in words): moderate activities
[1]; [5]
  IC50: 19.6 ± 3.4 µM

## CC(C)C[C@H](NC(=O)OCc1ccccc1)C(=O)N[C@@H](CC1CCNC1=O)C(O)S(=O)(=O)O (stereo partly drawn) [GC-376, reference compound]
VEROE6-EGFP cells
  CC50: > 100 µM
SARS-CoV-2
  EC50: 0.84 ± 0.08 µM

## O=C1C=C(O)C(=O)c2ccccc21 [Lawsone, 2-Hydroxy-1,4-naphthoquinone]
[4]
  IC50, HIV-1 RT-associated RNase H activity: >100 µM
